{"source": "patent US20240165140A1", "about": "“MEDICATION FOR INHIBITING DNA-PKCS” (TSINGHUA UNIVERSITY, priority 2017, published 2024)", "key": {"[1]": {"test_system": "tumor cells with normal P53 function (H1299-P53 and A549-NC)", "assay": "CCK8 cell activity, tumor cells with normal P53 function", "assay_type": "cell-based", "procedure": "(§1) First, a lentivirus kit (purchased from Shanghai Genepharma) was used to construct a P53 stably overexpressing H1299 cell line (H1299-P53) and a P53 stably knockdown A549 cell line […]. The P53 sequence targeted by the shRNA used to knock down P53 in A549 cells was 5′-[…]-3′ (SEQ ID NO: 4). Virus transfection and the construction of stable cell lines were performed according to the kit instructions. […] After treatment for 12 hours, the drug-containing medium was replaced with a normal medium and the cells were further cultured for 72 hours. Cell activity was measured according to the instructions of the CCK8 kit (Dojindo, Tokyo, Japan).\nIn this example, another chemical drug, Doxorubicin, was used to verify that Endostatin can enhance the sensitivity of P53-deficient tumor cells to chemotherapy. Operation process was the same as in Example 5."}, "[2]": {"test_system": "H1299 mouse tumor model", "assay": "Survival of H1299 tumor-bearing mice", "assay_type": "in vivo", "conditions": "administration as in Example 12, stopped after 25 days", "procedure": "(§2) Tumor-bearing nude mice were randomly divided into four groups with 6 to 8 animals for each group, and different drug treatments were performed. […] Tumor volume was measured every other day. 2 to 4 weeks after administration, the mice were sacrificed and the tumor tissue was removed for further use.\n(§3) H1299 and A549 cells were cultured in a vigorous and proliferative state, and tumor collection, grouping, and administration methods were the same as in Example 12. The administration was stopped after 25 days, and the survival of the mice was recorded daily, and the survival curve of the mice was plotted."}, "[3]": {"test_system": "A549-NC tumor", "assay": "Subcutaneous tumor growth in nude mice, A549-NC", "assay_type": "in vivo", "conditions": "Day 27, compared with control group, Endostatin 20 mg/kg i.p. once a day, Etoposide 2 mg/kg i.p. once every two days", "procedure": "as §2"}, "[4]": {"test_system": "tumor cells with normal P53 function (H1299-P53, A549-NC)", "assay": "Cell colony formation, tumor cells with normal P53 function", "assay_type": "cell-based", "conditions": "Etoposide 1 μM, 16 h; colonies after 14 days", "procedure": "After the treatment, the cells were digested with trypsin, counted, and re-plated in a six-well plate with 1000 cells per well. The cells were cultured in a normal medium for 14 days to form cell colonies."}, "[5]": {"test_system": "mRNA levels of BAX, NOXA, PUMA, and P21", "assay": "Real-time PCR of pro-apoptotic molecules, tumor cells with normal P53 function", "assay_type": "cell-based", "conditions": "H1299-P53, A549-NC; Etoposide 1 μM, 16 h", "procedure": "After the cells were treated as described above, the total RNA of the cells was extracted, and the relative changes in mRNA levels of BAX, NOXA, PUMA, and P21 in the cells were detected by real-time PCR."}, "[6]": {"test_system": "H1299-P53 tumor", "assay": "Subcutaneous tumor growth in nude mice, H1299-P53", "assay_type": "in vivo", "conditions": "H1299-P53, Day 19; compared with control group; Endostatin 20 mg/kg i.p. once a day, Etoposide 2 mg/kg i.p. once every two days", "procedure": "as §2"}, "[7]": {"test_system": "A375 cells", "assay": "CCK8 cell activity, melanoma A375", "assay_type": "cell-based", "conditions": "A375 (P53 wild type); Etoposide; operation process as in Example 5", "procedure": "as §1\nThis example used two cell lines of another tumor type (melanoma), the MDA-MB-435S (P53 mutant) and A375 (P53 wild type) cell lines, to verify the regulatory function of Endostatin on the chemotherapeutic sensitivity of other types of tumor cells with different P53 status. Operation process was the same as in Example 5."}, "[8]": {"test_system": "tumor cells with normal P53 function (H1299-P53, A549-NC)", "assay": "PI staining apoptosis by flow cytometry, tumor cells with normal P53 function", "assay_type": "cell-based", "conditions": "Etoposide 1 μM, 16 h", "procedure": "The apoptotic cells and adherent cells floating in the culture medium were collected, and the cells were suspended in 500 μl PBS containing 0.05 mg/ml propidium iodide (PI), stained for 15 min at room temperature in dark, and detected by flow cytometry (BD FACS Calibur). PI-positive cells represent apoptotic cells."}, "[9]": {"test_system": "A549 tumor-bearing mice (normal P53 function)", "assay": "Survival of A549 tumor-bearing mice", "assay_type": "in vivo", "conditions": "A549, normal P53 function (FIG. 13B); compared with control group; administration as in Example 12, stopped after 25 days", "procedure": "as §2, §3"}, "[10]": {"test_system": "A549-shP53 tumor", "assay": "Subcutaneous tumor growth in nude mice, A549-shP53", "assay_type": "in vivo", "conditions": "A549-shP53, Day 27; compared with control group; Endostatin 20 mg/kg i.p. once a day, Etoposide 2 mg/kg i.p. once every two days", "procedure": "as §2"}, "[11]": {"test_system": "H1299 and A549 cells", "assay": "Annexin V-FITC/PI apoptosis by flow cytometry with DNA-PKcs siRNA knockdown", "assay_type": "cell-based", "conditions": "A549 (P53 wild-type) versus H1299 (P53-deficient); 1 μM versus 10 μM, 16 h", "procedure": "In this example, tumor cells (including H1299 and A549 cells) were divided into eight treatment groups. In the first four groups, cells were transfected with control siRNA, and in the last four groups, cells were transfected with siRNA that specifically knocked down DNA-PKcs. The siRNA sequence of DNA-PKcs is: forward 5′-[…]-3′ (SEQ ID NO: 5), reverse 5′-[…]-3′ (SEQ ID NO: 6). The siRNA transfection method was performed according to the instructions of the transfection reagent Lipofectamine 2000. Then, in the eight groups, the cells were treated with drugs. […] Cells were collected and operations were performed according to the instructions of Annexin V-FITC/PI Apoptosis Detection Kit. Apoptosis was detected by flow cytometry. A549 cells were P53 wild-type cells, and H1299 cells were P53-deficient cells."}, "[12]": {"test_system": "PCNA and DNA-PKcs protein in H1299-NC and A549-shP53 tumor tissues", "assay": "Immunofluorescence of PCNA and DNA-PKcs in tumor tissue, P53-deficient mouse tumor model", "assay_type": "in vivo, nude mice", "conditions": "H1299-NC and A549-shP53 tumors of Example 12; quantitative immunofluorescence", "procedure": "as §2\n(§4) The tumor tissue removed in Example 12 was fixed and embedded, and then sectioned. PCNA (a marker molecule indicating the vigorous proliferation status of tumor cells) and DNA-PKcs protein in tumor tissues were stained by immunofluorescence technique, and were observed and imaged with a laser confocal microscope (Nikon A1). The experimental results are shown in FIG. 14A-14D, in which blue represents the nucleus of DAPI-stained cells, green represents the DNA-PKcs protein, and red represents the PCNA protein. Taking the H1299-NC tumor tissue shown in FIG. 14A as an example, the first column on the left represents DNA-PKcs single staining, and the green area represents the DNA-PKcs protein expression level. The second column on the left represents the results of DNA-PKcs (green) merged with nucleus (blue), and the overlapping part is shown in cyan. The third column on the left represents PCNA single staining, and the red area represents the PCNA protein expression level, indicating the strength of tumor cell proliferation. […]"}, "[13]": {"test_system": "H1299-NC tumor", "assay": "Subcutaneous tumor growth in nude mice, H1299-NC", "assay_type": "in vivo", "conditions": "Day 19, compared with control group, Endostatin 20 mg/kg i.p. once a day, Etoposide 2 mg/kg i.p. once every two days", "procedure": "as §2"}, "[14]": {"test_system": "DNA-PKcs signaling pathway", "assay": "Immunoblotting of DNA-PKcs signaling pathway activation induced by chemotherapeutic agent", "assay_type": "cell-based", "conditions": "H1299 and A549 cells; for Level of the DNA-PKcs signaling pathway (p-DNA-PKcs (S2056), p-AKT (S473), p-P53 (S15)): single agent 1 h (Etoposide 10 μM, Endostatin 10 μg/ml, NU7026 10 μM); for Activation of the DNA-PKcs signaling pathway by Etoposide (p-DNA-PKcs (S2056), p-AKT (S473)): 10 μg/ml added 1 h before Etoposide 10 μM", "description": "Tumor cells (including non-small cell lung cancer H1299 and A549 cells) were divided into six treatment groups.\nTumor cells (including H1299 and A549 cells) were divided into six treatment groups."}, "[15]": {"test_system": "PCNA and DNA-PKcs protein in H1299-P53 and A549-NC tumor tissues", "assay": "Immunofluorescence of PCNA and DNA-PKcs in tumor tissue, mouse tumor model with normal P53 function", "assay_type": "in vivo, nude mice", "conditions": "H1299-P53 and A549-NC tumors of Example 12; quantitative immunofluorescence", "procedure": "as §2, §4"}, "[16]": {"test_system": "DNA-PKcs, PARP, γH2AX and Caspase-3 signaling pathways", "assay": "Immunoblotting of DNA damage and apoptotic pathway, P53-deficient tumor cells", "assay_type": "cell-based", "conditions": "H1299-NC, A549-shP53; Endostatin 10 μg/ml, Etoposide 10 μM 16 h, z-DEVD-fmk 10 μM; Endostatin and z-DEVD-fmk added 1 h before Etoposide", "source_text": "In this example, tumor cells (H1299-NC, H1299-P53, A549-NC, A549-shP53) were divided into six treatment groups."}}, "data": [{"molecule": "COc1cccc2c1C(=O)c1c(O)c3c(c(O)c1C2=O)C[C@@](O)(C(=O)CO)C[C@@H]3O[C@H]1C[C@H](N)[C@H](O)[C@H](C)O1", "note": "[Doxorubicin, reference compound]", "values": [{"measurement": "Activity of tumor cells", "setting": "[1]; Doxorubicin, operation process as in Example 5", "result": "could significantly inhibit the activity of tumor cells"}]}, {"molecule": "COc1cc([C@@H]2c3cc4c(cc3[C@@H](O[C@@H]3O[C@@H]5CO[C@@H](C)O[C@H]5[C@H](O)[C@H]3O)[C@H]3COC(=O)[C@H]23)OCO4)cc(OC)c1O", "note": "[Etoposide, reference compound]", "values": [{"measurement": "median survival time longer than that of the control group", "setting": "[2]", "result": 30.3, "unit": "%"}, {"measurement": "tumor suppression rate", "setting": "[3]", "result": 34.0, "unit": "%"}, {"measurement": "Colony-forming ability of tumor cells", "setting": "[4]", "result": "could significantly inhibit the colony-forming ability of tumor cells"}, {"measurement": "mRNA levels of pro-apoptotic molecules BAX, NOXA, PUMA, P21", "setting": "[5]", "result": "could significantly up-regulate the above pro-apoptotic molecules"}, {"measurement": "tumor suppression rate", "setting": "[6]", "result": 30.0, "unit": "%"}, {"measurement": "Activity of tumor cells", "setting": "[7]", "result": "could significantly inhibit the activity of tumor cells"}, {"measurement": "Apoptosis of tumor cells (PI-positive cells)", "setting": "[8]", "result": "could significantly promote the apoptosis of tumor cells"}, {"measurement": "Survival time of mice", "setting": "[9]", "result": "could prolong the survival time of the mice to some extent"}, {"measurement": "tumor suppression rate", "setting": "[10]", "result": 39.3, "unit": "%"}, {"measurement": "Sensitivity of cells to the chemotherapeutic agent (apoptosis)", "setting": "[11]", "result": "A549 cells were more sensitive to the chemotherapeutic agent"}, {"measurement": "Tumor cell proliferation (PCNA) and protein level of DNA-PKcs in tumor tissue", "setting": "[12]", "result": "can attenuate tumor cell proliferation to a certain extent and reduce the protein level of DNA-PKcs"}, {"measurement": "tumor suppression rate", "setting": "[13]", "result": 28.0, "unit": "%"}, {"measurement": "Activity of tumor cells", "setting": "[1]; Etoposide 0, 0.1, 1, 10 μM, 12 hours treatment, 72 hours further culture", "result": "could significantly inhibit the activity of tumor cells"}, {"measurement": "Level of the DNA-PKcs signaling pathway (p-DNA-PKcs (S2056), p-AKT (S473))", "setting": "[14]; Example 15, Etoposide 10 μM, 1 h, compared with control group", "result": "activated the level of the DNA-PKcs signaling pathway in H1299 and A549 cells"}, {"measurement": "Level of the DNA-PKcs signaling pathway (p-DNA-PKcs (S2056), p-AKT (S473), p-P53 (S15))", "setting": "[14]; compared with control group", "result": "activated the level of the DNA-PKcs signaling pathway"}, {"measurement": "Tumor cell proliferation (PCNA) and protein level of DNA-PKcs in tumor tissue", "setting": "[15]", "result": "could reduce the proliferation of tumor cells and reduce the protein level of DNA-PKcs"}]}, {"molecule": "O=c1cc(N2CCOCC2)oc2c1ccc1ccccc12", "note": "[NU7026, reference compound]", "values": [{"measurement": "Level of the DNA-PKcs signaling pathway (p-DNA-PKcs (S2056), p-AKT (S473), p-P53 (S15))", "setting": "[14]; compared with control group", "result": "did not affect the level of the DNA-PKcs signaling pathway"}]}, {"molecule": "z-DEVD-fmk [reference compound]", "values": [{"measurement": "DNA-PKcs, PARP, γH2AX and Caspase-3 signaling pathway levels", "setting": "[16]", "result": "could reverse the synergistic effect of Endostatin and Etoposide to some extent"}]}, {"molecule": "PEG-Endostatin: natural human endostatin modified with 20 kDa mPEG-ALD at the N-terminal α-amino group (conjugate) MHSHRDFQPVLHLVALNSPLSGGMRGIRGADFQCFQQARAVGLAGTFRAFLSSRLQDLYSIVRRADRAAVPIVNLKDELLFPSWEALFSGSEGPLKPGARIFSFDGKDVLRHPTWPQKSVWHGSDPNGRRLTESYCETWRTEAPSATGQASSLLGGRLLGQSAASCHHAYIVLCIENSFMTASK", "values": [{"measurement": "Activation of the DNA-PKcs signaling pathway by Etoposide (p-DNA-PKcs (S2056), p-AKT (S473))", "setting": "[14]; Example 15, 1 h", "result": "inhibited the activation of the DNA-PKcs signaling pathway by Etoposide"}]}, {"molecule": "ZBP-Endostatin: endostatin variant obtained by adding 9 additional amino acids (MGGSHHHHH) to the N-terminus of natural human endostatin, SEQ ID NO: 3 (protein, The amino acid sequence of ZBP-Endostatin) MGGSHHHHHHSHRDFQPVLHLVALNSPLSGGMRGIRGADFQCFQQARAVGLAGTFRAFLSSRLQDLYSIVRRADRAAVPIVNLKDELLFPSWEALFSGSEGPLKPGARIFSFDGKDVLRHPTWPQKSVWHGSDPNGRRLTESYCETWRTEAPSATGQASSLLGGRLLGQSAASCHHAYIVLCIENSFMTASK", "values": [{"measurement": "Activation of the DNA-PKcs signaling pathway by Etoposide (p-DNA-PKcs (S2056), p-AKT (S473))", "setting": "[14]; Example 15, 1 h", "result": "inhibited the activation of the DNA-PKcs signaling pathway by Etoposide"}]}]}
